The text below walks through data of patent publication US20230060350A1, “BACTERICIDAL COMPOSITION FOR CONTROLLING GUMMY STEM BLIGHT OF MELONS” (Institute of Plant Protection and Agro-products Safety, …, priority 2022, published 2023).

Test [1] deals with gummy stem blight of the watermelon. The experiment in a line: Greenhouse control experiment on gummy stem blight of watermelon. It is filed as in vivo. The text has this:
Embodiment 4: Field Control Experiment of Pydiflumetofen and the Thifluzamide on Gummy Stem Blight of Watermelon Control tests of gummy stem blight of watermelons were respectively conducted in 2020 and 2021. Test data in 2021 were collected as follows: the 18% Pydiflumetofen·Thifluzamide water dispersible granules, 20% Pydiflumetofen suspension, 30% Thifluzamide suspension and 25% Azoxystrobin suspension in embodiment 1 were respectively used in the experiment. The variety of the tested watermelon was “Zaojia 8424”; the test location was a watermelon greenhouse in Gangji experimental production base in Anhui Academy of Agricultural Sciences; water consumption per mu was 30 kg; the watermelons were subjected to agent control for the first time within 30 days after field planting of watermelon seedlings, and then subjected to agent control for the second time within 10 days after the first control; and disease condition survey was conducted within 30 days after the second agent control (Table 3).

The test system of test [2] is gummy stem blight of Trichosanthes kirilowii maxim. In words: Field control experiment on gummy stem blight of Trichosanthes kirilowii maxim. The format is in vivo. The text has this: Embodiment 3: Field Control Experiment of Pydiflumetofen and the Thifluzamide on Gummy Stem Blight of Trichosanthes kirilowii maxim
Control tests of gummy stem blight of Trichosanthes kirilowii maxim were respectively conducted in 2020 and 2021. Test data in 2021 were collected as follows: the 20% Pydiflumetofen·Thifluzamide suspension, 20% Pydiflumetofen suspension, 30% Thifluzamide suspension and 25% Azoxystrobin suspension in embodiment 2 were respectively used in the experiment. The variety of the tested Trichosanthes kirilowii maxim was “Wanlou 9”; the test location was a Trichosanthes kirilowii maxim field in Gangji experimental production base in Anhui Academy of Agricultural Sciences; water consumption per mu was 30 kg; the Trichosanthes kirilowii maxim was subjected to agent control at an early stage of growing and flowering (May 20); and disease condition survey was conducted within 30 days (Table 2).

The subject of test [3] is Stagonosporopsis cucurbitacearum. The experiment in a line: Indoor toxicity test, hypha growth assay on drug-containing PDA plates. The format is cell-based. The note with it: hypha growth inhibition, 25° C. The method, then:
Embodiment 1 Indoor toxicity test of Pydiflumetofen and the Thifluzamide on Stagonosporopsis cucurbitacearum
Bactericidal properties of the Pydiflumetofen and the Thifluzamide were analyzed in detail. EC50 […] of two single components such as the Pydiflumetofen and the Thifluzamide (hereinafter referred to as agents) was tested first; a combination ratio of the two agents was set by a Wadley method according to the EC50 of the two single agents, and according to a Wadley synergistic coefficient SR value.
A test object was Stagonosporopsis cucurbitacearum of melons, but was not limited herein. […] Hypha growth assay was adopted during the test; drug containing media were prepared according to different treatments; hypha blocks having a diameter of 5 mm were prepared on the edges of the pre-culture colonies by using the sterilized puncher and respectively transferred onto medium plates with different drug content; a colony diameter was tested by a crossing method; the colony diameter (mm) was measured; and a growth inhibition ratio was calculated by the following formula: […]
Interaction of the mixture was evaluated according to the Wadley method; and a calculation formula was as follows: […]
In the formula, a and b were content ratios of various components in the mixture; and a mixing effect was analyzed based on the value SR.

For `CON(C(=O)c1cn(C)nc1C(F)F)C(C)Cc1c(Cl)cc(Cl)cc1Cl` (racemic) [Pydiflumetofen, 3-(difluoromethyl)-N-methoxy-1-methyl-N-[(RS)-1-methyl-2-(2,4,6-trichlorophenyl)ethyl]pyrazol-4-formamide], the “Control effect (in words)” value in test [1] and in test [2] was “significant control effects” throughout. Further, the EC50 in test [3] came out at 0.0109 ppm.
With `Cc1nc(C(F)(F)F)c(C(=O)Nc2c(Br)cc(OC(F)(F)F)cc2Br)s1` [Thifluzamide], the “Control effect (in words)” value in test [1] and in test [2] was “significant control effects” each time. Further, the EC50 in test [3] turned out to be 0.0451 ppm.
